This is an account of results in patent US8080524B2, “Agent for slowing hair loss and/or stimulating hair growth” (Centre National de la Recherche Scientifique (CNRS), priority 2005, dated 2011).

Test [1] deals with cells in mitosis (Ki67) in epithelial sheath of human hair explants. Nature of the test: Anti-Ki67 immunolabelling of cells in mitosis along the epithelial sheath of hairs. Format: cell-based. Conditions: for increase in number of cells in mitosis compared to control hair: D8 of treatment. The method, then: (§1) Study of the stimulating activity of tetrapeptide AcSDKP on the growth of isolated hairs maintained in a state of ex vivo survival. This study was conducted on 66 human hair explants obtained from scalp-plasty.
(§2) Hairs comprised of hair follicles were isolated by micro dissection and individually placed in wells (96-well culture plate) and maintained in survival for 15 days under conventional tissue culturing conditions (37° C., 5% CO2) in Williams medium.
(§3) Tetrapeptide AcSDKP added to the culture medium was tested at three concentrations: 10^−4 M, 10^−7 M and 10^−10 M. Minoxidil (2/1 diamino 6-piperidinopyrimidine 3-oxide) at a concentration of 10^−5 M was used as a positive control.
(§4) On D8 and D15 of treatment, six hairs from each batch (untreated control, Minoxidil, +AcSDKP 10^−4 M, +AcSDKP 10^−7 M, +AcSDKP 10^−10 M) were removed and prepared for histological study.
(§5) Three explants from each batch were fixed in ordinary Bouin and the three other hairs were frozen and stored at −80° C.
In addition to measurements of the length of each hair, the general morphology of each hair was analysed and the expression of laminin 5 and collagen IV, two constituents of the basal membrane, was evaluated. Moreover, immunolabeling with anti-Ki67 antibodies (nuclear protein expressed in growing cells) was carried out of cells in mitosis in order to establish the mitotic index of follicle structures.
This study was conducted on cuts of frozen hairs.

A further test relates to human hair explants. Nature of the test: Growth (length) of isolated human hairs maintained in ex vivo survival. The class given is cell-based. The method, then: as §1, §2, §3
Culture mediums containing the compounds to be tested were renewed every three days.
Hairs were photographed using a microscope and a CCD camera coupled to acquisition software and archiving.
Each hair was measured on D0, D3, D6, D8, D10, D13 and D15 using a LEICA IM1000 measurement module to give measurements in μm.
Each hair was photographed and its length evaluated using software giving values in μm.

The subject of test [2] is epithelial sheaths of human hair explants. Nature of the test: General morphology of hair histological cuts stained with Masson Trichromium (neo-keratinocytes). The class given is cell-based. How it is done: as §1, §2, §3, §4, §5
Analysis of the general morphology of histological cuts stained with Masson Trichromium focusing on the area between the opening of the sebaceous glands and the hair bulb.
Hairs cultured on D0 naturally undergo changes during survival as is observed after an in vivo graft. The restructuring effect of AcSDKP was visualised through the appearance of neo-keratinocytes along the conjunctival sheath which migrate from the bulge and to a lesser extent from the bulb, two regions where stem cells are found. […] This effect leads to clear appearance of neo-keratinocytes along the length of the hair, from the epidermis to the bulb. The structure of the neo-keratinocytes formed in this way is uniform and stratified. It varies as a function of treatment time and AcSDKP concentration. The clearest activity was found on D15 of treatment with AcSDKP at 10^−10 M.

Another test has as its system type IV collagen. Nature of the test: Immunolabelling of type IV collagen on frozen hair cuts. The class given is cell-based, human. The method, then:
as §1, §2, §3
On D8 and D15 of treatment, six hairs from each batch (untreated control, Minoxidil, +AcSDKP 10^−4 M, +AcSDKP 10^−7 M, +AcSDKP 10^−10 M) were removed and prepared for histological study. […]
In addition to measurements of the length of each hair, the general morphology of each hair was analysed and the expression of laminin 5 and collagen IV, two constituents of the basal membrane, was evaluated. […]
Immunolabelling of type IV collagen was carried out on frozen cuts of the control hairs and hairs treated with AcSDKP or Minoxidil in order to quantify this constituent of the basal membrane which separates the dermal compartment from the epithelial compartment.

In a further test the test system is laminin 5. Nature of the test: Immunolabelling of laminin 5 in hair cuts. The class given is cell-based, human. How it is done:
Study of the stimulating activity of tetrapeptide AcSDKP on the growth of isolated hairs maintained in a state of ex vivo survival. This study was conducted on 66 human hair explants obtained from scalp-plasty. Hairs comprised of hair follicles were isolated by micro dissection and individually placed in wells (96-well culture plate) and maintained in survival for 15 days under conventional tissue culturing conditions (37° C., 5% CO2) in Williams medium. Tetrapeptide AcSDKP added to the culture medium was tested at three concentrations: 10^−4 M, 10^−7 M and 10^−10 M. Minoxidil (2/1 diamino 6-piperidinopyrimidine 3-oxide) at a concentration of 10^−5 M was used as a positive control. On D8 and D15 of treatment, six hairs from each batch (untreated control, Minoxidil, +AcSDKP 10^−4 M, +AcSDKP 10^−7 M, +AcSDKP 10^−10 M) were removed and prepared for histological study. Three explants from each batch were fixed in ordinary Bouin and the three other hairs were frozen and stored at −80° C. In addition to measurements of the length of each hair, the general morphology of each hair was analysed and the expression of laminin 5 and collagen IV, two constituents of the basal membrane, was evaluated. Moreover, immunolabeling with anti-Ki67 antibodies (nuclear protein expressed in growing cells) was carried out of cells in mitosis in order to establish the mitotic index of follicle structures. Laminin 5, another constituent of the basal membrane, is present in the bulb around the dermal papilla as well as in the median section of hair. […] Nevertheless, expression of laminin 5 was higher on D15 with AcSDKP at 10^−7 M (FIG. 4B).

The next test has as its system keratin 19 (CK19). Nature of the test: Immunolabelling of keratin 19 (CK19), epithelial stem cell marker, on frozen hair cuts. The class given is cell-based, human. The method, then:
as §1, §2, §3, §4, §5
Immunolabeling of keratin 19 (CK19) was carried out on frozen cuts of control hairs and hairs treated with AcSDKP or Minoxidil in order to evaluate the proportion of undifferentiated primitive cells (or even stem cells) present in the external epithelial sheaths of the hair follicles. […]

Residues, ends and D or L forms follow the SMILES beside them.

As to `Nc1cc(N2CCCCC2)nc(N)[n+]1[O-]` [Minoxidil, 2/1 diamino 6-piperidinopyrimidine 3-oxide, reference compound], the “Average number of cells in mitosis per mm of hair” value is given as 18.5 per mm of hair in test [1] (10^−5 M, D8) and 23.3 per mm of hair in test [1] (10^−5 M, D15). Further, in test [1] (10^−5 M), the “increase in number of cells in mitosis compared to control hair” value is reported as “+38%”.

For `CC(=O)N[C@@H](CO)C(=O)N[C@@H](CC(=O)O)C(=O)N[C@@H](CCCCN)C(=O)N1CCC[C@H]1C(=O)O` [AcSDKP, CH3CO-Ser-Asp-Lys-Pro-OH] (Ac-SDKP-OH), in the test on human hair explants (AcSDKP 10^−10 M in culture medium, D15 of treatment), the “hair growth (length of hair)” value is listed as “significantly stimulates hair growth”. Besides, in the test on human hair explants (AcSDKP at higher concentrations (10^−4 M, 10^−7 M), D15), the “hair growth (difference in the hair shafts)” value is on record as “no significant difference”. The “Average number of cells in mitosis per mm of hair” value was 35.4 per mm of hair in test [1] (10^−4 M, D8); 23.4 per mm of hair in test [1] (10^−4 M, D15); 34 per mm of hair in test [1] (10^−7 M, D8); 21.5 per mm of hair in test [1] (10^−7 M, D15); 52.6 per mm of hair in test [1] (10^−10 M, D8); 29.3 per mm of hair in test [1] (10^−10 M, D15). Moreover, the “increase in number of cells in mitosis compared to control hair” value in test [1] (10^−10 M) is “+300%”. In test [1] (three concentrations tested (10^−4 M, 10^−7 M, 10^−10 M)), the “number of cells in mitosis in treated hair compared to control hair” value is given as “significantly increases”. In test [2] (10^−4 M, 10^−7 M and especially 10^−10 M, D15), the “thickness of neo-keratinocyte structure” value is “increasingly thicker”. In test [2] (10^−4 M, D8), the “adhesion of epithelial sheaths to collagen” value is “more or less detached”. For the same compound, in test [2] (10^−4 M, D8), the neo-keratinocyte sites result was “absent”. In addition, the “adhesion of epithelium to the underlying collagen” value in test [2] (two active concentrations (10^−7 M and 10^−10 M), D8) was “adheres fully”. Besides, the “increase in collagen levels” value in the test with type IV collagen (10^−10 M, D8 and D15) is “all the more marked”. In the test on type IV collagen (three concentrations tested, as of D8 of treatment), the “collagen IV in the bulb and median section of hair” value is listed as “very clear increase”. In the test with laminin 5 (10^−7 M, D15), the “expression of laminin 5” value is recorded as “higher”. For the same compound, the “laminin 5 effect in the median zone of hair” value with laminin 5 (10^−10 M, D8 of treatment) is recorded as “considerably more marked”. In the test with laminin 5 (following exposure of hair to AcSDKP), the “level of laminin 5 in hair structures” value is “significant increase”. In addition, the “increase in CK19 levels” value with keratin 19 (CK19) (10^−10 M, D8 and D15 of treatment) was “maximal”. Further, the “expression of CK19 compared to control hair and to hair treated with Minoxidil” value in the test with keratin 19 (CK19) (hair kept in survival in the presence of the tetrapeptide) is “significantly greater”.
